For orientation: Ki means the equilibrium dissociation constant of an inhibitor or competing ligand from its target.

Molecules are shown by their SMILES.

Chain of human σ1 receptor (Q99720 whole entry): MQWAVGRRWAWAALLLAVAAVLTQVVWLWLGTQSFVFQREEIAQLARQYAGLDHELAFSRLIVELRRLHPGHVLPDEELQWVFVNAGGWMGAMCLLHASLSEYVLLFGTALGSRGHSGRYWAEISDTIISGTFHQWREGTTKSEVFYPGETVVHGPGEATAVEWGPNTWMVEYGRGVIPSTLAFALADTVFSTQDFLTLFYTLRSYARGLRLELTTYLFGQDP

This assay has as its target human σ1 receptor (Homo sapiens (Human), UniProt Q99720). The assay can be described thus: Human σ1 receptor radioligand assay ([3H](+)-pentazocine, transfected HEK-293 membranes). The note with it: binding to the σ1 receptor expressed as Ki, [3H](+)-pentazocine 5 nM. The protocol: Human σ1 Receptor Radioligand Assay
To investigate binding properties of test compounds to human σ1 receptor, transfected HEK-293 membranes and [^3H](+)-pentazocine (Perkin Elmer, NET-1056), as the radioligand, were used. The assay was carried out with 7 μg of membrane suspension, 5 nM of [^3H](+)-pentazocine in either absence or presence of either buffer or 10 μM Haloperidol for total and non-specific binding, respectively. Binding buffer contained Tris-HCl 50 mM at pH 8. Plates were incubated at 37° C. for 120 minutes. After the incubation period, the reaction mix was then transferred to MultiScreen HTS, FC plates (Millipore), filtered and plates were washed 3 times with ice-cold 10 mM Tris-HCL (pH 7.4). Filters were dried and counted at approximately 40% efficiency in a MicroBeta scintillation counter (Perkin-Elmer) using EcoScint liquid scintillation cocktail
Molecule `c1ccc(CN2CCC3(CC2)Cc2ccccc2CN3)cc1` [Example 4, 1′-benzyl-2,4-dihydro-1H-spiro[isoquinoline-3,4′-piperidine]] came in with a Ki of less than 0.1 µM. With `CN1Cc2ccccc2CC12CCN(Cc1ccccc1)CC2` [Example 6, 1′-Benzyl-2-methyl-2,4-dihydro-1H-spiro[isoquinoline-3,4′-piperidine]] the figure was less than 0.1 µM; with `CN1Cc2ccccc2CC12CCN(CCN1CCOCC1)CC2` [Example 7, 4-(2-(2-Methyl-2,4-dihydro-1H-spiro[isoquinoline-3,4′-piperidine]-1′-yl)ethyl)morpholine], less than 0.5 µM. For the molecule `O=C1NC2(CCN(CCc3ccccc3)CC2)Cc2ccccc21` [Example 1, 1′-(2-Phenylethyl)-2,4-dihydro-1H-spiro[isoquinoline-3,4′-piperidin]-1-one], the inhibition constant Ki is less than 0.1 µM.

With `O=C1NC2(CCN(Cc3ccccc3)CC2)Cc2ccccc21` [Example 2, 1′-benzyl-2,4-dihydro-1H-spiro[isoquinoline-3,4′-piperidin]-1-one], the inhibitory constant (Ki) is less than 0.1 µM.

These data come from patent US10072008B2, “Spiro-isoquinoline-3,4′-piperidine compounds having activity against pain” (LABORATORIOS DEL DR. ESTEVE S.A., priority 2015, dated 2018).
